Experimental data from the supplement of paper PMC13380429.

Experiments:
Conditions in all cases: 72 h
Caco-2 [1] = experiment: drug sensitivity score (DSS) for viability; higher = more toxic; extreme values may be limits of the assay
Calu-3 [2] = experiment: as above
Vero E6 [3] = experiment: as above
HepG2 [4] = experiment: as above
U2OS [5] = experiment: as above
Caco-2 [6] = experiment: cell viability relative to DMSO; higher = less toxic
Calu-3 [7] = experiment: as above
Vero E6 [8] = experiment: as above
HepG2 [9] = experiment: as above
U2OS [10] = experiment: as above
Caco-2 [11] = experiment: relative viability EC50 (midpoint between 100% and the lowest measured viability); higher = less toxic
Calu-3 [12] = experiment: as above
Vero E6 [13] = experiment: as above
HepG2 [14] = experiment: as above
U2OS [15] = experiment: as above

Row | Structure (SMILES) | drug sensitivity score (Caco-2 [1]) | drug sensitivity score (Calu-3 [2]) | drug sensitivity score (Vero E6 [3]) | drug sensitivity score (HepG2 [4]) | drug sensitivity score (U2OS [5]) | cell viability (Caco-2 [6]; 1 nM) | cell viability (Caco-2 [6]; 10 nM) | cell viability (Caco-2 [6]; 100 nM) | cell viability (Caco-2 [6]; 1000 nM) | cell viability (Caco-2 [6]; 10000 nM) | cell viability (Calu-3 [7]; 1 nM) | cell viability (Calu-3 [7]; 10 nM) | cell viability (Calu-3 [7]; 100 nM) | cell viability (Calu-3 [7]; 1000 nM) | cell viability (Calu-3 [7]; 10000 nM) | cell viability (Vero E6 [8]; 1 nM) | cell viability (Vero E6 [8]; 10 nM) | cell viability (Vero E6 [8]; 100 nM) | cell viability (Vero E6 [8]; 1000 nM) | cell viability (Vero E6 [8]; 10000 nM) | cell viability (HepG2 [9]; 1 nM) | cell viability (HepG2 [9]; 10 nM) | cell viability (HepG2 [9]; 100 nM) | cell viability (HepG2 [9]; 1000 nM) | cell viability (HepG2 [9]; 10000 nM) | cell viability (U2OS [10]; 1 nM) | cell viability (U2OS [10]; 10 nM) | cell viability (U2OS [10]; 100 nM) | cell viability (U2OS [10]; 1000 nM) | cell viability (U2OS [10]; 10000 nM) | relative viability EC50 (Caco-2 [11]) | relative viability EC50 (Calu-3 [12]) | relative viability EC50 (Vero E6 [13]) | relative viability EC50 (HepG2 [14]) | relative viability EC50 (U2OS [15])
1 | CC1(COc2ccc(CC3SC(=O)NC3=O)cc2)CCCCC1 (stereo not given) [ciglitazone] | 0 | 0 | 0 | 0 | 0 | 98.7% | 99.2% | 99.1% | 92.9% | 95.2% | 104% | 98.4% | 92.9% | 98% | 102% | 94.6% | 97% | 92.7% | 94.1% | 96.5% | 101% | 99.8% | 98.2% | 108% | 105% | 95.3% | 99.8% | 102% | 100% | 100% | > 10 µM | > 10 µM | > 10 µM | > 10 µM | > 10 µM
2 | O=[N+]([O-])c1c(Nc2cc(F)cc(Cl)c2)ccc2nonc12 [TC-S-7009] | 0 | 0 | 0 | 0 | 0 | 99.2% | 96.3% | 97.2% | 95.9% | 92.9% | 102% | 98.1% | 104% | 106% | 104% | 102% | 102% | 96.4% | 99.5% | 95.8% | 93.1% | 103% | 95.3% | 85.7% | 94.5% | 100% | 106% | 97.9% | 105% | 95.9% | > 10 µM | > 10 µM | > 10 µM | > 10 µM | > 10 µM
3 | Cc1c(F)cc(C(=O)NC2CC2)cc1-c1ccc(C(=O)NCC(C)(C)C)cn1 [losmapimod] | 2.4 | 2.1 | 1.3 | 0 | 0 | 97% | 90.8% | 90.8% | 83.4% | 80.6% | 110% | 94.4% | 90.5% | 84% | 87.7% | 95.8% | 101% | 92.8% | 88.7% | 80.5% | 97.9% | 99.8% | 105% | 103% | 87.3% | 102% | 96.5% | 97.2% | 90.3% | 92.5% | > 10 µM | > 10 µM | > 10 µM | > 10 µM | > 10 µM
4 | COc1cc(C(=O)N2CCOCC2)cc(OC)c1OC [trimetozine] | 0 | 0 | 0 | 0 | 0 | 95.4% | 105% | 86.4% | 108% | 96.6% | 98.9% | 94.8% | 101% | 92.1% | 102% | 106% | 107% | 108% | 94.8% | 99.9% | 93.8% | 92.9% | 102% | 95.3% | 98.8% | 95.8% | 98.3% | 96.8% | 99.9% | 96.6% | > 10 µM | > 10 µM | > 10 µM | > 10 µM | > 10 µM
5 | O=C(N/N=C/c1ccccc1O)c1ccccc1O [SCS] | 8.8 | 5 | 2.8 | 7.5 | 4.4 | 97% | 97.6% | 88.6% | 76.5% | 3.6% | 108% | 94.9% | 98.2% | 99.3% | 11.9% | 97.6% | 100% | 101% | 102% | 45.4% | 102% | 94.6% | 94.1% | 86.6% | 5.5% | 98.7% | 104% | 95.6% | 91.1% | 46.3% | 1.6 µM | 3.11 µM | 3.35 µM | 2.04 µM | 1.89 µM
6 | c1ccc(COCCCc2c[nH]cn2)cc1 [proxyfan] | 0 | 0 | 0 | 0 | 0 | 96.4% | 92.9% | 93.5% | 91.6% | 95.6% | 101% | 101% | 98.4% | 103% | 105% | 96.9% | 95.8% | 95.9% | 99% | 93.3% | 97.9% | 108% | 97.7% | 103% | 107% | 99.6% | 97.8% | 102% | 97.5% | 101% | > 10 µM | > 10 µM | > 10 µM | > 10 µM | > 10 µM
7 | CC(C)(C)CC(C)(C)c1cc(Cc2cc(C(C)(C)CC(C)(C)C)cc(-n3nc4ccccc4n3)c2O)c(O)c(-n2nc3ccccc3n2)c1 [bisoctrizole] | 0.1 | 0 | 0 | 0 | 0 | 98.6% | 99.3% | 97.1% | 98.9% | 87.7% | 88.8% | 99% | 90.8% | 105% | 103% | 103% | 101% | 96.5% | 98.1% | 101% | 98.6% | 108% | 97.5% | 98.6% | 105% | 96.8% | 99.7% | 95.5% | 99.5% | 94.4% | > 10 µM | > 10 µM | > 10 µM | > 10 µM | > 10 µM
8 | COC(=O)C1=C(C)NC(C)=C(C(=O)OCCSc2ccccc2)[C@@H]1C [PCA-4248] | 0.8 | 0.1 | 0 | 0 | 0 | 97.7% | 99.4% | 102% | 94.8% | 84% | 93.8% | 95.6% | 104% | 99% | 87.7% | 98.1% | 99.1% | 98.2% | 96.5% | 98.8% | 92% | 90.3% | 93.4% | 94.6% | 95.9% | 98% | 95.9% | 93.6% | 92.9% | 96.1% | > 10 µM | > 10 µM | > 10 µM | > 10 µM | > 10 µM
9 | CC(C)(N)c1nc(-c2ccc(OC(F)(F)F)cc2)c[nH]1 | 0.1 | 0 | 0 | 0 | 0 | 95.8% | 96.5% | 91.3% | 92% | 88% | 107% | 102% | 90.1% | 105% | 113% | 95.9% | 97.7% | 94.6% | 94.9% | 107% | 96% | 107% | 101% | 117% | 104% | 98.2% | 94.1% | 96.5% | 95.6% | 95.4% | > 10 µM | > 10 µM | > 10 µM | > 10 µM | > 10 µM
10 | CC1=CC(=C(c2ccc(N)cc2)c2ccc(N)cc2)C=CC1=N [basic-fuchsin] | 7.9 | 6.6 | 6.6 | 7.9 | 7.1 | 88.8% | 92.4% | 106% | 77.6% | 18.6% | 92.3% | 102% | 103% | 87.1% | 19.5% | 97.2% | 91% | 94.8% | 82.3% | 29.8% | 102% | 97% | 104% | 83% | 7.8% | 97.8% | 97.9% | 95.2% | 86.5% | 12.8% | 1.47 µM | 1.93 µM | 1.54 µM | 1.81 µM | 1.96 µM
11 | Nc1ncnc2c1ncn2[C@@H]1O[C@H](C[C@@H](N)CC[C@H](N)C(=O)O)[C@@H](O)[C@H]1O [sinefungin] | 0 | 0 | 0 | 0 | 0 | 86.7% | 95.5% | 91.4% | 108% | 106% | 104% | 104% | 100% | 94.8% | 93.5% | 112% | 94.3% | 102% | 104% | 99.5% | 115% | 96.2% | 113% | 89.9% | 97.1% | 96.6% | 98.1% | 97.7% | 101% | 96.2% | > 10 µM | > 10 µM | > 10 µM | > 10 µM | > 10 µM
12 | OCc1cc([C@@H](O)CNCCCCCCOCCOCc2c(Cl)cccc2Cl)ccc1O [vilanterol] | 0 | 0 | 0 | 0 | 0 | 94% | 93.5% | 96% | 96.2% | 94.3% | 99% | 100% | 89.8% | 102% | 97% | 95.3% | 99.7% | 89.2% | 98.9% | 107% | 97.8% | 96.5% | 89.5% | 104% | 109% | 96.8% | 96.1% | 101% | 100% | 94% | > 10 µM | > 10 µM | > 10 µM | > 10 µM | > 10 µM
13 | N[C@H](C(=O)O)[C@H](O)c1ccc(O)c(O)c1 [droxidopa] | 0 | 0 | 0 | 0 | 0 | 95.4% | 102% | 103% | 96.4% | 102% | 98.8% | 98.1% | 99.7% | 87% | 102% | 95.1% | 102% | 96.8% | 98.5% | 104% | 90.7% | 95.5% | 98.8% | 114% | 104% | 98% | 95.6% | 97.5% | 97.2% | 100% | > 10 µM | > 10 µM | > 10 µM | > 10 µM | > 10 µM
14 | Cc1[nH]c(=O)c(C#N)cc1-c1ccncc1 [milrinone] | 0.9 | 0 | 0 | 0 | 0 | 100% | 98.4% | 103% | 87.5% | 85.9% | 95.3% | 89.1% | 99.5% | 108% | 101% | 95.6% | 101% | 95.3% | 97.6% | 94.5% | 102% | 101% | 98.3% | 96.2% | 106% | 103% | 95.6% | 99.9% | 97.7% | 100% | > 10 µM | > 10 µM | > 10 µM | > 10 µM | > 10 µM
